Test results from patent US10167262B2, “Herbicidal substituted 3-arylpyrazoles” (FMC CORPORATION, priority 2014, dated 2019).

Experiments:
Type in all cases: in vivo
[1] = test system: corn (Zea mays); test: Test C pre-/postemergence greenhouse test, plant response rating 0-100
Excerpt: (§1) Seeds of plant species selected from blackgrass (Alopecurus myosuroides), Italian ryegrass (Lolium multiflorum), winter wheat (Triticum aestivum), galium (catchweed bedstraw, Galium aparine), corn (Zea mays), large (Lg) crabgrass (Digitaria sanguinalis), giant foxtail (Setaria faberii), johnsongrass (Sorghum halepense), lambsquarters (Chenopodium album), morningglory (Ipomoea coccinea), yellow nutsedge (Cyperus esculentus), pigweed (Amaranthus retroflexus), ragweed (common ragweed, Ambrosia elatior), soybean (Glycine max), barnyardgrass (Echinochloa crus-galli), oilseed rape (Brassica napus), waterhemp (common waterhemp, Amaranthus rudis), and velvetleaf (Abutilon theophrasti) were planted into a blend of loam soil and sand and treated preemergence with test chemicals formulated in a non-phytotoxic solvent mixture which included a surfactant.
(§2) At the same time, plants selected from these crop and weed species and also winter barley (Hordeum vulgare), bermudagrass (Cynodon dactylon), downy bromegrass (Bromus tectorum), canarygrass (Phalaris minor), cocklebur (common cocklebur, Xanthium strumarium), woolly cupgrass (Eriochloa villosa), deadnettle (henbit deadnettle, Lamium amplexicaule), green foxtail (Setaria viridis), goosegrass (Eleusine indica), surinam grass (Brachiaria decumbens), windgrass (Apera spica-venti), chickweed (common chickweed, Stellaria media), kochia (Kochia scoparia), and wild oat (Avena fatua), were planted in pots containing Redi-Earth® planting medium (Scotts Company, 14111 Scottslawn Road, Marysville, Ohio 43041) comprising spaghnum peat moss, vermiculite, wetting agent and starter nutrients and treated with postemergence applications of test chemicals formulated in the same manner. Plants ranged in height from 2 to 18 cm (1- to 4-leaf stage) for postemergence treatments. Treated plants and controls were maintained in a greenhouse for 13 to 15 days, after which time all species were compared to controls and visually evaluated. Plant response ratings, summarized in Table C, are based on a scale of 0 to 100 where 0 is no effect and 100 is complete control. A dash (-) response means no test result.

[2] = test system: velvetleaf (Abutilon theophrasti); test: as above
Excerpt: as §1, §2

[3] = test system: Italian ryegrass (Lolium multiflorum); test: as above
Excerpt: as §1, §2

[4] = test system: ragweed (common ragweed, Ambrosia elatior); test: as above
Excerpt: as §1, §2

[5] = test system: pigweed (Amaranthus retroflexus); test: as above
Excerpt: as §1, §2

[6] = test system: wheat (Triticum aestivum); test: Test A pre-/postemergence greenhouse herbicide test, visual injury rating 0-100
Outline: (§3)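 Seeds sown in loam soil–sand blend; preemergence directed soil spray and, simultaneously, postemergence spray on plants 2 to 10 cm tall at one- to two-leaf stage. Compounds formulated in non-phytotoxic solvent mixture with surfactant. Injury rated visually versus untreated controls after ~10 days in greenhouse.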

[7] = test system: morningglory (Ipomoea spp.); test: as above
Outline: as §3

[8] = test system: large (Lg) crabgrass (Digitaria sanguinalis); test: as above
Outline: as §3

[9] = test system: corn (Zea mays); test: as above
Outline: as §3

[10] = test system: velvetleaf (Abutilon theophrasti); test: as above
Outline: as §3

[11] = test system: giant foxtail (Setaria faberii); test: as above
Outline: as §3

[12] = test system: barnyardgrass (Echinochloa crus-galli); test: as above
Outline: as §3

[13] = test system: pigweed (Amaranthus retroflexus); test: as above
Outline: as §3

[14] = Postemergence, 250 g ai/ha, scale 0 to 100

O=C(c1cncc(F)c1)c1c[nH]nc1-c1cc(Cl)cc(Cl)c1 [Compound 19]
10: Plant response rating, Ryegrass, Italian ([3]; Preemergence, 250 g ai/ha)
70: Plant response rating (0 to 100), Ragweed ([4]; Postemergence, 62 g ai/ha)
98: Plant response rating, Velvetleaf ([2]; Preemergence, 250 g ai/ha)
85: Plant response rating, Ragweed ([4]; Preemergence, 62 g ai/ha) | Plant response rating (0 to 100), Pigweed ([5]; Postemergence, 62 g ai/ha) | Plant response rating, Pigweed ([5]; Preemergence, 62 g ai/ha)
80: Plant response rating (0 to 100), Ragweed ([4]; Postemergence, 125 g ai/ha)
40: Plant response rating (0 to 100), Velvetleaf ([2]; Postemergence, 125 g ai/ha) | Plant response rating, Velvetleaf ([2]; Preemergence, 62 g ai/ha)
5: Plant response rating, Ryegrass, Italian [3, 14]
0: Plant response rating (0 to 100), Corn ([1]; Postemergence, 31 g ai/ha) | Plant response rating (0 to 100), Corn ([1]; Postemergence, 62 g ai/ha) | Plant response rating (0 to 100), Corn ([1]; Postemergence, 125 g ai/ha) | Plant response rating, Corn [1, 14] | Plant response rating, Corn ([1]; Preemergence, 31 g ai/ha) | Plant response rating, Corn ([1]; Preemergence, 62 g ai/ha) | Plant response rating, Corn ([1]; Preemergence, 125 g ai/ha) | Plant response rating, Corn ([1]; Preemergence, 250 g ai/ha) | Plant response rating (0 to 100), Ryegrass, Italian ([3]; Postemergence, 62 g ai/ha) | Plant response rating (0 to 100), Ryegrass, Italian ([3]; Postemergence, 125 g ai/ha) | Plant response rating, Ryegrass, Italian ([3]; Preemergence, 62 g ai/ha) | Plant response rating, Ryegrass, Italian ([3]; Preemergence, 125 g ai/ha) | Plant response rating (0 to 100 scale), Wheat ([6]; Postemergence, 1000 g ai/ha) | Plant response rating (0 to 100 scale), Wheat ([6]; Preemergence, 1000 g ai/ha) | Plant response rating (0 to 100 scale), Morningglory ([7]; Postemergence, 1000 g ai/ha) | Plant response rating (0 to 100 scale), Morningglory ([7]; Preemergence, 1000 g ai/ha) | Plant response rating (0 to 100 scale), Crabgrass, Large ([8]; Postemergence, 1000 g ai/ha) | Plant response rating (0 to 100 scale), Crabgrass, Large ([8]; Preemergence, 1000 g ai/ha) | Plant response rating (0 to 100 scale), Corn ([9]; Postemergence, 1000 g ai/ha) | Plant response rating (0 to 100 scale), Corn ([9]; Preemergence, 1000 g ai/ha) | Plant response rating (0 to 100 scale), Foxtail, Giant ([11]; Postemergence, 1000 g ai/ha) | Plant response rating (0 to 100 scale), Foxtail, Giant ([11]; Preemergence, 1000 g ai/ha) | Plant response rating (0 to 100 scale), Barnyardgrass ([12]; Postemergence, 1000 g ai/ha) | Plant response rating (0 to 100 scale), Barnyardgrass ([12]; Preemergence, 1000 g ai/ha)
95: Plant response rating, Pigweed [5, 14]
90: Plant response rating, Ragweed [4, 14] | Plant response rating (0 to 100), Pigweed ([5]; Postemergence, 125 g ai/ha) | Plant response rating (0 to 100 scale), Velvetleaf ([10]; Preemergence, 1000 g ai/ha)
75: Plant response rating, Velvetleaf ([2]; Preemergence, 125 g ai/ha) | Plant response rating, Pigweed ([5]; Preemergence, 31 g ai/ha)
100: Plant response rating, Ragweed ([4]; Preemergence, 125 g ai/ha) | Plant response rating, Ragweed ([4]; Preemergence, 250 g ai/ha) | Plant response rating, Pigweed ([5]; Preemergence, 125 g ai/ha) | Plant response rating, Pigweed ([5]; Preemergence, 250 g ai/ha) | Plant response rating (0 to 100 scale), Velvetleaf ([10]; Postemergence, 1000 g ai/ha) | Plant response rating (0 to 100 scale), Pigweed ([13]; Postemergence, 1000 g ai/ha) | Plant response rating (0 to 100 scale), Pigweed ([13]; Preemergence, 1000 g ai/ha)
25: Plant response rating (0 to 100), Velvetleaf ([2]; Postemergence, 62 g ai/ha)
55: Plant response rating, Velvetleaf [2, 14]

C=CCn1cc(C(=O)c2ccccc2)c(-c2cc(Cl)cc(Cl)c2)n1 [Compound 60]
70: Plant response rating (0 to 100), Velvetleaf ([2]; Postemergence, 62 g ai/ha) | Plant response rating (0 to 100), Velvetleaf ([2]; Postemergence, 125 g ai/ha)
30: Plant response rating (0 to 100), Ragweed ([4]; Postemergence, 62 g ai/ha) | Plant response rating (0 to 100), Ragweed ([4]; Postemergence, 125 g ai/ha) | Velvetleaf plant response rating (0 = no effect, 100 = complete control) ([10]; Preemergence, 125 g ai/ha)
5: Plant response rating (0 to 100), Corn ([1]; Postemergence, 31 g ai/ha) | Plant response rating (0 to 100), Corn ([1]; Postemergence, 62 g ai/ha) | Plant response rating (0 to 100), Corn ([1]; Postemergence, 125 g ai/ha) | Plant response rating, Corn [1, 14]
100: Plant response rating, Pigweed [5, 14]
35: Plant response rating, Ragweed [4, 14]
0: Plant response rating (0 to 100), Ryegrass, Italian ([3]; Postemergence, 62 g ai/ha) | Plant response rating (0 to 100), Ryegrass, Italian ([3]; Postemergence, 125 g ai/ha) | Plant response rating, Ryegrass, Italian [3, 14] | Plant response rating (0 to 100 scale), Wheat ([6]; Postemergence, 125 g ai/ha) | Plant response rating (0 to 100 scale), Wheat ([6]; Postemergence, 500 g ai/ha) | Wheat plant response rating (0 = no effect, 100 = complete control) ([6]; Preemergence, 125 g ai/ha) | Plant response rating (0 to 100 scale), Morningglory ([7]; Postemergence, 125 g ai/ha) | Plant response rating (0 to 100 scale), Morningglory ([7]; Postemergence, 500 g ai/ha) | Morningglory plant response rating (0 = no effect, 100 = complete control) ([7]; Preemergence, 125 g ai/ha) | Plant response rating (0 to 100 scale), Morningglory ([7]; Preemergence, 500 g ai/ha) | Plant response rating (0 to 100 scale), Crabgrass, Large ([8]; Postemergence, 125 g ai/ha) | Plant response rating (0 to 100 scale), Crabgrass, Large ([8]; Postemergence, 500 g ai/ha) | Crabgrass, Large plant response rating (0 = no effect, 100 = complete control) ([8]; Preemergence, 125 g ai/ha) | Plant response rating (0 to 100 scale), Crabgrass, Large ([8]; Preemergence, 500 g ai/ha) | Plant response rating (0 to 100 scale), Corn ([9]; Postemergence, 125 g ai/ha) | Plant response rating (0 to 100 scale), Corn ([9]; Postemergence, 500 g ai/ha) | Corn plant response rating (0 = no effect, 100 = complete control) ([9]; Preemergence, 125 g ai/ha) | Plant response rating (0 to 100 scale), Corn ([9]; Preemergence, 500 g ai/ha) | Plant response rating (0 to 100 scale), Foxtail, Giant ([11]; Postemergence, 125 g ai/ha) | Plant response rating (0 to 100 scale), Foxtail, Giant ([11]; Postemergence, 500 g ai/ha) | Foxtail, Giant plant response rating (0 = no effect, 100 = complete control) ([11]; Preemergence, 125 g ai/ha) | Plant response rating (0 to 100 scale), Foxtail, Giant ([11]; Preemergence, 500 g ai/ha) | Plant response rating (0 to 100 scale), Barnyardgrass ([12]; Postemergence, 125 g ai/ha) | Plant response rating (0 to 100 scale), Barnyardgrass ([12]; Postemergence, 500 g ai/ha) | Barnyardgrass plant response rating (0 = no effect, 100 = complete control) ([12]; Preemergence, 125 g ai/ha) | Plant response rating (0 to 100 scale), Barnyardgrass ([12]; Preemergence, 500 g ai/ha)
40: Plant response rating (0 to 100 scale), Velvetleaf ([10]; Preemergence, 500 g ai/ha)
65: Plant response rating (0 to 100), Pigweed ([5]; Postemergence, 125 g ai/ha)
90: Plant response rating (0 to 100 scale), Velvetleaf ([10]; Postemergence, 125 g ai/ha) | Plant response rating (0 to 100 scale), Velvetleaf ([10]; Postemergence, 500 g ai/ha) | Plant response rating (0 to 100 scale), Pigweed ([13]; Postemergence, 500 g ai/ha) | Plant response rating (0 to 100 scale), Pigweed ([13]; Preemergence, 500 g ai/ha)
60: Plant response rating (0 to 100), Pigweed ([5]; Postemergence, 62 g ai/ha) | Pigweed plant response rating (0 = no effect, 100 = complete control) ([13]; Preemergence, 125 g ai/ha)
80: Plant response rating, Velvetleaf [2, 14] | Plant response rating (0 to 100 scale), Pigweed ([13]; Postemergence, 125 g ai/ha)
